From publication PMC7817688, “Identification of 3-chymotrypsin like protease (3CLPro) inhibitors as potential anti-SARS-CoV-2 agents” (Communications Biology, 2021)
“And” between values parts separate entries of the source, which are not always exact repeats. Identical values can stand only once. Like-named read-outs stand apart in the source and are kept apart here.

Molecular target: SARS-CoV-2 3CLpro enzyme (Severe acute respiratory syndrome coronavirus 2, UniProt P0DTD1)
Assay: biochemical
Conditions: for percent enzymatic activity, individual values / percent enzymatic activity, AVG: DMSO treated control = 100%, data of Figs. 2-4; for percent enzymatic activity, AVG: mean of 3 values; for IC50: drugs 0 to 100 µM, 50 µM substrate, non-linear four variable fit; for inhibitory effect towards 3CLpro enzymatic activity (in words): in vitro enzymatic assay at the tested doses; for inhibition at 50 µM / inhibition at 100 µM: read-out: inhibition of 3CLpro enzymatic activity
[1] = dose-dependent study, 0.097656 uM, individual values
[2] = dose-dependent study, 0.195313 uM, individual values
[3] = dose-dependent study, 0.390625 uM, individual values
[4] = dose-dependent study, 0.78125 uM, individual values
[5] = dose-dependent study, 1.5625 uM, individual values
[6] = dose-dependent study, 3.125 uM, individual values
[7] = dose-dependent study, 6.25 uM, individual values
[8] = dose-dependent study, 12.5 uM, individual values
[9] = dose-dependent study, 25 uM, individual values
[10] = dose-dependent study, 50 uM, individual values
[11] = dose-dependent study, 100 uM, individual values
[12] = dose-dependent study, 0.097656 uM, individual values, read-out: % activity
[13] = dose-dependent study, 0.390625 uM, individual values, read-out: % activity
[14] = dose-dependent study, 0.78125 uM, individual values, read-out: % activity
[15] = dose-dependent study, 12.5 uM, individual values, read-out: % activity
[16] = read-out: IC50 for SARS-CoV-2 3CL protease

COC(=O)N[C@H](C(=O)N1CCC[C@H]1C(=O)Nc1ccc([C@@H]2CC[C@@H](c3ccc(NC(=O)[C@@H]4CCCN4C(=O)[C@@H](NC(=O)OC)C(C)C)cc3)N2c2ccc(C(C)(C)C)cc2)cc1)C(C)C [Ombitasvir]
percent enzymatic activity, individual values (50 µM drug): 28.8321% and 35.4015% and 42.7007% | percent enzymatic activity, AVG (50 µM drug): 35.6448% | IC50 (IC50 for SARS-CoV-2 3CL protease): 75.5 µM | % activity [1]: 102.678% and 100.823% | activity at 0.097656 µM [1]: 106% | % activity [2]: 97.7299% and 97.8652% | activity at 0.195313 µM [2]: 106% | % activity [3]: 102.06% and 103.288% | activity at 0.390625 µM [3]: 112% | % activity [4]: 107.008% and 95.4001% | activity at 0.78125 µM [4]: 113% | % activity [5]: 102.06% and 100.823% | activity at 1.5625 µM [5]: 111% | % activity [6]: 111.957% and 103.781% | activity at 3.125 µM [6]: 113% | % activity [7]: 105.153% and 107.726% | activity at 6.25 µM [7]: 115% | % activity [8]: 107.627% and 104.767% | activity at 12.5 µM [8]: 112% | % activity [9]: 102.302% and 73.6067% and 103.288% | % activity [10]: 98.3582% and 67.4213% and 91.9489% | % activity [11]: 61.2358% and 60.8884% | activity at 100 µM [11]: 64.3% | inhibitory effect towards 3CLpro enzymatic activity (in words): partial inhibitory effect | inhibition at 50 µM: 65% | inhibition at 100 µM: 50%

CCOC(=O)C1=C[C@@H](OC(CC)CC)[C@H](NC(C)=O)[C@@H](N)C1 [Oseltamvir Phosphate]
percent enzymatic activity, individual values (50 µM drug): 105.843% and 84.7982% and 96.5585% | percent enzymatic activity, AVG (50 µM drug): 95.7333%

Cc1cnc(C(=O)N[C@H]2CCCCC/C=C\[C@@H]3C[C@@]3(C(=O)NS(=O)(=O)C3CC3)NC(=O)[C@@H]3C[C@@H](Oc4nc5ccccc5c5ccccc45)CN3C2=O)cn1 [Paritaprevir]
percent enzymatic activity, individual values (50 µM drug): 25.5475% and 31.3869% and 37.2263% | percent enzymatic activity, AVG (50 µM drug): 31.3869% | % activity [1]: 101.809% and 115.049% | activity at 0.097656 µM [12]: 101% | % activity [2]: 132.87% and 115.668% | % activity [3]: 114.628% and 102.678% | activity at 0.390625 µM [13]: 113% | % activity [4]: 108.219% and 103.297% | activity at 0.78125 µM [14]: 108% | % activity [5]: 121.853% | activity at 1.5625 µM (dose-dependent study, 1.5625 uM, individual values, read-out: % activity): 114% | % activity [6]: 108.712% and 136.698% | % activity [7]: 112.163% and 121.853% | activity at 6.25 µM (dose-dependent study, 6.25 uM, individual values, read-out: % activity): 112% | % activity [8]: 103.781% and 112.575% | activity at 12.5 µM [15]: 102% | % activity [9]: 89.4838% and 96.4929% | activity at 25 µM [9]: 91% | % activity [10]: 58.9163% and 64.3286% | activity at 50 µM [10]: 61.4% | % activity [11]: 16.5163% and 15.0372% and 1.856% | IC50 [16]: 73.4 µM | inhibitory effect towards 3CLpro enzymatic activity (in words): partial inhibitory effect | inhibition at 50 µM (50 µM drug): 70% | inhibition at 100 µM (100 µM drug): ~80%

CCC(CC)[C@H](NC(C)=O)[C@@H]1[C@H](O)[C@@H](C(=O)O)C[C@H]1N=C(N)N [Peramivir]
percent enzymatic activity, individual values (50 µM drug): 99.7193% and 97.2053% and 109.775% | percent enzymatic activity, AVG (50 µM drug): 102.233%

COC(=O)N[C@H](C(=O)N1CCC[C@H]1c1nc2cc([C@H]3CC[C@H](c4cc5nc([C@@H]6CCCN6C(=O)[C@@H](NC(=O)OC)[C@@H](C)OC)[nH]c5cc4F)N3c3cc(F)c(N4CCC(c5ccc(F)cc5)CC4)c(F)c3)c(F)cc2[nH]1)[C@@H](C)OC [Pibrentasvir]
percent enzymatic activity, individual values (50 µM drug): 62.0438% and 66.4234% and 69.3431% | percent enzymatic activity, AVG (50 µM drug): 65.9367%

O=C(O)[C@H]1C2CCC(CC2)[C@@H]1Nc1nc(-c2c[nH]c3ncc(F)cc23)ncc1F [Pimodivir]
percent enzymatic activity, individual values (50 µM drug, listed as Pimodvir): 92.1775% and 98.4623% and 116.898% | percent enzymatic activity, AVG (50 µM drug): 102.513%

Cc1cc(CCCOc2c(C)cc(-c3noc(C(F)(F)F)n3)cc2C)on1 [Pleconaril]
percent enzymatic activity, individual values (50 µM drug): 89.2446% and 86.7306% and 85.4737% | percent enzymatic activity, AVG (50 µM drug): 87.1496%

CC[C@@H]([C@H](C)O)n1ncn(-c2ccc(N3CCN(c4ccc(OC[C@@H]5CO[C@@](Cn6cncn6)(c6ccc(F)cc6F)C5)cc4)CC3)cc2)c1=O [Posaconazole]
percent enzymatic activity, individual values (50 µM drug): 84.6282% and 81.1692% | percent enzymatic activity, AVG (50 µM drug): 83.4752%

CCC(CC)COC(=O)[C@H](C)N[P@](=O)(OC[C@H]1O[C@@](C#N)(c2ccc3c(N)ncnn23)[C@H](O)[C@@H]1O)Oc1ccccc1 [Remdesivir]
percent enzymatic activity, individual values (50 µM drug): 83.5766% and 41.9708% and 50.7299% | percent enzymatic activity, AVG (50 µM drug): 58.7591%

NC[C@H]1O[C@H](O[C@H]2[C@H](O[C@@H]3O[C@H](CO)[C@@H](O)[C@H]3O)[C@@H](O)[C@H](N)C[C@@H]2N)[C@H](N)[C@@H](O)[C@@H]1O [Ribostamycin]
percent enzymatic activity, individual values (50 µM drug): 96.7864% and 99.3003% | percent enzymatic activity, AVG (50 µM drug): 98.4623%

CC(C)c1nc(CN(C)C(=O)N[C@H](C(=O)N[C@@H](Cc2ccccc2)C[C@H](O)[C@H](Cc2ccccc2)NC(=O)OCc2cncs2)C(C)C)cs1 [Ritonavir]
percent enzymatic activity, individual values (50 µM drug): 82.0276% and 87.5576% and 91.2442% | percent enzymatic activity, AVG (50 µM drug): 86.9432% | inhibitory effect towards 3CLpro enzymatic activity (in words): did not exhibit any 3CLpro inhibitory activity

CC(C)(C)NC(=O)[C@@H]1C[C@@H]2CCCC[C@@H]2CN1C[C@@H](O)[C@H](Cc1ccccc1)NC(=O)[C@H](CC(N)=O)NC(=O)c1ccc2ccccc2n1 [Saquinavir]
percent enzymatic activity, individual values (50 µM drug): 65.8986% and 67.2811% and 76.0369% | percent enzymatic activity, AVG (50 µM drug): 69.7389%

CC(C)OC(=O)[C@H](C)N[P@](=O)(OC[C@H]1O[C@@H](n2ccc(=O)[nH]c2=O)[C@](C)(F)[C@@H]1O)Oc1ccccc1 [Sofosbuvir]
percent enzymatic activity, individual values (50 µM drug): 76.4977% and 78.341% and 81.5668% | percent enzymatic activity, AVG (50 µM drug): 78.8018%

CCC[C@H](NC(=O)[C@@H]1[C@H]2CCC[C@H]2CN1C(=O)[C@@H](NC(=O)[C@@H](NC(=O)c1cnccn1)C1CCCCC1)C(C)(C)C)C(=O)C(=O)NC1CC1 [Telaprevir]
percent enzymatic activity, individual values (50 µM drug): 64.9635% and 42.7007% and 84.6715% | percent enzymatic activity, AVG (50 µM drug): 64.1119%

COc1cnc(-n2cnc(C)n2)c2[nH]cc(C(=O)C(=O)N3CCN(C(=O)c4ccccc4)CC3)c12 [Temsavir]
percent enzymatic activity, individual values (50 µM drug): 93.8534% and 98.0433% and 100.976% | percent enzymatic activity, AVG (50 µM drug): 97.6243%

CCC[C@@]1(CCc2ccccc2)CC(O)=C([C@H](CC)c2cccc(NS(=O)(=O)c3ccc(C(F)(F)F)cn3)c2)C(=O)O1 [Tipranavir]
percent enzymatic activity, individual values (50 µM drug): 30.4148% and 38.7097% and 37.3272% | percent enzymatic activity, AVG (50 µM drug): 35.4839% | % activity [1]: 82.4284% (2×) and 99.6504% | activity at 0.097656 µM [12]: 101% | % activity [2]: 93.9114% and 73.379% and 92.2647% and 99.6504% | % activity [3]: 86.3629% and 90.6909% and 88.1724% | activity at 0.390625 µM [13]: 104% | % activity [4]: 90.2974% and 88.7236% and 98.607% | activity at 0.78125 µM [14]: 109% | % activity [5]: 116.346% and 88.7236% and 94.6254% | % activity [6]: 93.8385% and 93.4451% and 104.346% | activity at 3.125 µM (dose-dependent study, 3.125 uM, individual values, read-out: % activity): 110% | % activity [7]: 117.389% and 86.7564% and 86.3629% | % activity [8]: 89.5105% and 88.3302% and 98.0853% | activity at 12.5 µM [15]: 107% | % activity [9]: 75.6509% and 84.3957% and 93.4451% and 63.6511% | % activity [10]: 69.8379% and 61.9688% and 53.2165% | activity at 50 µM [10]: 57.4% | % activity [11]: 47.9992% and 60.395% and 69.8379% and 42.7819% | IC50 [16]: 27.7 µM | inhibitory effect towards 3CLpro enzymatic activity (in words): partial inhibitory effect | inhibition at 50 µM (50 µM drug): 64% | inhibition at 100 µM (100 µM drug): 50%

CCOC(=O)c1c(CSc2ccccc2)n(C)c2cc(Br)c(O)c(CN(C)C)c12 [Umifenovir]
percent enzymatic activity, individual values (50 µM drug): 80.6569% and 86.8613% and 87.2263% | percent enzymatic activity, AVG (50 µM drug): 84.9148%

Candicidin
percent enzymatic activity, individual values (50 µM drug): 86.2745% and 80.3922% and 82.3529% | percent enzymatic activity, AVG (50 µM drug): 83.0065%
